From ChEMBL document CHEMBL1144839, “Cytotoxic bastadin 24 from the Australian sponge Ianthella quadrangulata” (J Nat Prod, 2008)

System: HUVEC
Assay: Antiangiogenic activity in HUVEC cells assessed as inhibition of hEGF-induced tubular formation at 1 ug/mL after 24 hrs relative to control
Assay type: functional, Homo sapiens
Set-up: scale not given: the % may be the effect or the level left

Question: For `O=C1N/C=C/c2ccc(c(Br)c2)Oc2cc(cc(Br)c2O)CCNC(=O)/C(=N/O)Cc2ccc(c(Br)c2)Oc2cc(cc(Br)c2O)C/C1=N\O` [BASTADIN 7], which Activity is on record?
Answer: 37.3%
